Among the data in US8404670B2 (Sunovion Pharmaceuticals Inc., priority 2009, dated 2013) are IC50 values, retold here.

pIC50: −log10 of the molar value.

For this experiment, the target named is T1, human histamine H3 receptor (Homo sapiens, UniProt Q9Y5N1).
T1 construct: host or cells: cells expressing the human H3 receptor
T1 sequence (Q9Y5N1 whole entry): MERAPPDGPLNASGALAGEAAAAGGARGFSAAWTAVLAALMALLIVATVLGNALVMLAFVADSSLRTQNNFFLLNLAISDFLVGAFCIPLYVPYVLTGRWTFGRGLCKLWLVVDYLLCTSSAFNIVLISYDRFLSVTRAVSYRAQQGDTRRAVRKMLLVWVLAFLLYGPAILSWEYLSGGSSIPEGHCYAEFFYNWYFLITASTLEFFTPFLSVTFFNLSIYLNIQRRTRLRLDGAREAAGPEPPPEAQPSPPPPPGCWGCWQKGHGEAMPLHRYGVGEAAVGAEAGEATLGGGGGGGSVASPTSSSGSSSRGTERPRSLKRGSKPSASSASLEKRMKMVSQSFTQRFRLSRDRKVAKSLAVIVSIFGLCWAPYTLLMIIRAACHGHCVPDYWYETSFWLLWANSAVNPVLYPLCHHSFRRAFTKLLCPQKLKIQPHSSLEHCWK
The experiment in a line: H3 GTPγS assay (SPA method), histamine H3 in vitro assay. The class given is biochemical. The following applies: GTPγ[35S] binding to membranes of cells expressing human H3; antagonist mode with R-γ-Me-Histamine at EC80 (30 nM); in one embodiment HCl salts tested; read-out: Potency (functional potency as indicated by IC50). Background: Binding of GTPγS marks nucleotide exchange on a G protein.
As a reminder, the pIC50 is −log10 of the IC50, conventionally taken in molar units. For `Fc1ccc2c(c1)CN(c1ccc3c(c1)nc1n3CCN(C3CCC3)CC1)CC2` [Compound 177, 3-cyclobutyl-8-(7-fluoro-3,4-dihydroisoquinolin-2(1H)-yl)-2,3,4,5-tetrahydro-1H-benzo[4,5]imidazo[1,2-d][1,4]diazepine], the pIC50 is not below 8.00.
The value for `FC1(F)CCN(c2ccc3c(c2)nc2n3CCN(C3CCC3)CC2)CC1` [Compound 178, 3-cyclobutyl-8-(4,4-difluoropiperidin-1-yl)-2,3,4,5-tetrahydro-1H-benzo[4,5]imidazo[1,2-d][1,4]diazepine] was not below 7.00; that for `FC1CCN(c2ccc3c(c2)nc2n3CCN(C3CCC3)CC2)CC1` [Compound 179, 3-cyclobutyl-8-(4-fluoropiperidin-1-yl)-2,3,4,5-tetrahydro-1H-benzo[4,5]imidazo[1,2-d][1,4]diazepine] was not below 8.00; that for `FC1CCCN(c2ccc3c(c2)nc2n3CCN(C3CCC3)CC2)C1` (stereo not shown) [Compound 180, 3-cyclobutyl-8-(3-fluoropiperidin-1-yl)-2,3,4,5-tetrahydro-1H-benzo[4,5]imidazo[1,2-d][1,4]diazepine] was not below 8.00.
The value for `FC1CCN(c2ccc3c(c2)nc2n3CCN(C3CCC3)CC2)C1` (stereo not shown) [Compound 181, 3-cyclobutyl-8-(3-fluoropyrrolidin-1-yl)-2,3,4,5-tetrahydro-1H-benzo[4,5]imidazo[1,2-d][1,4]diazepine] was not below 7.00; that for `FC1(F)CCN(c2ccc3c(c2)nc2n3CCN(C3CCC3)CC2)C1` [Compound 182, 3-cyclobutyl-8-(3,3-difluoropyrrolidin-1-yl)-2,3,4,5-tetrahydro-1H-benzo[4,5]imidazo[1,2-d][1,4]diazepine] was not below 7.00; that for `c1c2c(cc3c1nc1n3CCN(C3CCC3)CC1)CCNC2` [Compound 183, 9-cyclobutyl-2,3,4,7,8,9,10,11-octahydro-1H-[1,4]diazepino[7′,1′:2,3]imidazo[4,5-g]isoquinoline] was not below 7.00.
The figure for `c1cc2c(nc3n2CCN(C2CCC2)CC3)c2c1CNCC2` [Compound 184, 10-cyclobutyl-2,3,4,8,9,10,11,12-octahydro-1H-[1,4]diazepino[1′,7′:1,2]imidazo[4,5-f]isoquinoline] is not below 6.00; for `N#Cc1ccc(C(=O)N2CCc3cc4c(cc3C2)nc2n4CCN(C3CCC3)CC2)cc1` [Compound 185, 4-(9-cyclobutyl-2,3,4,7,8,9,10,11-octahydro-1H-[1,4]diazepino[7′,1′:2,3]imidazo[4,5-g]isoquinoline-2-carbonyl)benzonitrile] it is not below 8.00; for `O=C(C1CCC1)N1CCc2cc3c(cc2C1)nc1n3CCN(C2CCC2)CC1` [Compound 186, cyclobutyl(9-cyclobutyl-3,4,8,9,10,11-hexahydro-1H-[1,4]diazepino[7′,1′:2,3]imidazo[4,5-g]isoquinolin-2(7H)-yl)methanone] it is not below 7.00.
Regarding `CC(=O)N1CCc2cc3c(cc2C1)nc1n3CCN(C2CCC2)CC1` [Compound 187, 1-(9-cyclobutyl-3,4,8,9,10,11-hexahydro-1H-[1,4]diazepino[7′,1′:2,3]imidazo[4,5-g]isoquinolin-2(7H)-yl)ethanone], the pIC50 was not below 8.00.
The figure for `CC(=O)N1CCc2c(ccc3c2nc2n3CCN(C3CCC3)CC2)C1` [Compound 188, 1-(10-cyclobutyl-9,10,11,12-tetrahydro-1H-[1,4]diazepino[1′,7′:1,2]imidazo[4,5-f]isoquinolin-3(2H,4H,8H)-yl)ethanone] is not below 6.00; for `c1c2c(cc3c1nc1n3CCN(C3CCC3)CC1)CNCC2` [Compound 189, 9-cyclobutyl-2,3,4,7,8,9,10,11-octahydro-1H-[1,4]diazepino[1′,7′:1,2]imidazo[4,5-g]isoquinoline] it is not below 7.00.
The value for `c1cnc(N2CCc3cc4nc5n(c4cc3C2)CCN(C2CCC2)CC5)cn1` [Compound 190, 9-cyclobutyl-2-(pyrazin-2-yl)-2,3,4,7,8,9,10,11-octahydro-1H-[1,4]diazepino[1′,7′:1,2]imidazo[4,5-g]isoquinoline] was not below 8.00.
The figure for `O=C(C1CCC1)N1CCc2cc3nc4n(c3cc2C1)CCN(C1CCC1)CC4` [Compound 191, cyclobutyl(9-cyclobutyl-3,4,8,9,10,11-hexahydro-1H-[1,4]diazepino[1′,7′:1,2]imidazo[4,5-g]isoquinolin-2 (7H)-yl)methanone] is not below 7.00; for `N#Cc1ccc(C(=O)N2CCc3cc4nc5n(c4cc3C2)CCN(C2CCC2)CC5)cc1` [Compound 192, 4-(9-cyclobutyl-2,3,4,7,8,9,10,11-octahydro-1H-[1,4]diazepino[1′,7′:1,2]imidazo[4,5-g]isoquinoline-2-carbonyl)benzonitrile] it is not below 7.00.
For the molecule `c1cnc(N2CCc3cc4nc5n(c4cc3C2)CCN(C2CCC2)CC5)nc1` [Compound 193, 9-cyclobutyl-2-(pyrimidin-2-yl)-2,3,4,7,8,9,10,11-octahydro-1H-[1,4]diazepino[1′,7′:1,2]imidazo[4,5-g]isoquinoline], the pIC50 is not below 7.00.
The value for `CC(=O)N1CCc2cc3nc4n(c3cc2C1)CCN(C1CCC1)CC4` [Compound 194, 1-(9-cyclobutyl-3,4,8,9,10,11-hexahydro-1H-[1,4]diazepino[1′,7′:1,2]imidazo[4,5-g]isoquinolin-2(7H)-yl)ethanone] was not below 7.00; that for `Cc1cn2cc(-c3ccc4c(c3)nc3n4CCN(C4CCC4)CC3)ccc2n1` [Compound 195, 3-cyclobutyl-8-(2-methylimidazo[1,2-a]pyridin-6-yl)-2,3,4,5-tetrahydro-1H-benzo[4,5]imidazo[1,2-d][1,4]diazepine] was not below 8.00.
The value for `c1cc2ccc(-c3ccc4c(c3)nc3n4CCN(C4CCC4)CC3)nc2[nH]1` [Compound 196, 3-cyclobutyl-8-(1H-pyrrolo[2,3-b]pyridin-6-yl)-2,3,4,5-tetrahydro-1H-benzo[4,5]imidazo[1,2-d][1,4]diazepine] was not below 7.00.
As for `c1cc2nc(-c3ccc4c(c3)nc3n4CCN(C4CCC4)CC3)ccc2[nH]1` [Compound 197, 3-cyclobutyl-8-(1H-pyrrolo[3,2-b]pyridin-5-yl)-2,3,4,5-tetrahydro-1H-benzo[4,5]imidazo[1,2-d][1,4]diazepine], the pIC50 is not below 8.00.
For the molecule `c1cc2c(cc1-c1ccc3cncn3c1)nc1n2CCN(C2CCC2)CC1` [Compound 198, 3-cyclobutyl-8-(imidazo[1,5-a]pyridin-6-yl)-2,3,4,5-tetrahydro-1H-benzo[4,5]imidazo[1,2-d][1,4]diazepine], the pIC50 is not below 8.00.
The figure for `c1cc2nc(-c3ccc4c(c3)nc3n4CCN(C4CCC4)CC3)cnc2[nH]1` [Compound 199, 3-cyclobutyl-8-(5H-pyrrolo[2,3-b]pyrazin-2-yl)-2,3,4,5-tetrahydro-1H-benzo[4,5]imidazo[1,2-d][1,4]diazepine] is not below 7.00; for `c1cc2ncc(-c3ccc4c(c3)nc3n4CCN(C4CCC4)CC3)cc2[nH]1` [Compound 200, 3-cyclobutyl-8-(1H-pyrrolo[3,2-b]pyridin-6-yl)-2,3,4,5-tetrahydro-1H-benzo[4,5]imidazo[1,2-d][1,4]diazepine] it is not below 8.00.
The figure for `c1cc2ncc(-c3ccc4c(c3)nc3n4CCN(C4CCC4)CC3)cc2o1` [Compound 201, 6-(3-cyclobutyl-2,3,4,5-tetrahydro-1H-benzo[4,5]imidazo[1,2-d][1,4]diazepin-8-yl)furo[3,2-b]pyridine] is not below 8.00; for `Cn1cnc2cc(-c3ccc4c(c3)nc3n4CCN(C4CCC4)CC3)cnc21` [Compound 202, 3-cyclobutyl-8-(3-methyl-3H-imidazo[4,5-b]pyridin-6-yl)-2,3,4,5-tetrahydro-1H-benzo[4,5]imidazo[1,2-d][1,4]diazepine] it is not below 8.00; for `c1nc2ccc(-c3ccc4c(c3)nc3n4CCN(C4CCC4)CC3)cn2n1` [Compound 203, 8-([1,2,4]triazolo[1,5-a]pyridin-6-yl)-3-cyclobutyl-2,3,4,5-tetrahydro-1H-benzo[4,5]imidazo[1,2-d][1,4]diazepine] it is not below 7.00.
The figure for `c1cc2c(cc1-c1ccc3nncn3c1)nc1n2CCN(C2CCC2)CC1` [Compound 204, 8-([1,2,4]triazolo[4,3-a]pyridin-6-yl)-3-cyclobutyl-2,3,4,5-tetrahydro-1H-benzo[4,5]imidazo[1,2-d][1,4]diazepine] is not below 8.00; for `Cn1ncc2ccc(-c3ccc4c(c3)nc3n4CCN(C4CCC4)CC3)cc21` [Compound 205, 3-cyclobutyl-8-(1-methyl-1H-indazol-6-yl)-2,3,4,5-tetrahydro-1H-benzo[4,5]imidazo[1,2-d][1,4]diazepine] it is not below 7.00.
`Cn1cc2ccc(-c3ccc4c(c3)nc3n4CCN(C4CCC4)CC3)cc2n1` [Compound 206, 3-cyclobutyl-8-(2-methyl-2H-indazol-6-yl)-2,3,4,5-tetrahydro-1H-benzo[4,5]imidazo[1,2-d][1,4]diazepine]: the pIC50 was not below 7.00.
The value for `Cc1nc2ccccc2n1-c1ccc2c(c1)nc1n2CCN(C2CCC2)CC1` [Compound 207, 3-cyclobutyl-8-(2-methyl-1H-benzo[d]imidazol-1-yl)-2,3,4,5-tetrahydro-1H-benzo[4,5]imidazo[1,2-d][1,4]diazepine] was not below 8.00.
The figure for `Cc1nc2ccc(F)cc2n1-c1ccc2c(c1)nc1n2CCN(C2CCC2)CC1` [Compound 208, 3-cyclobutyl-8-(6-fluoro-2-methyl-1H-benzo[d]imidazol-1-yl)-2,3,4,5-tetrahydro-1H-benzo[4,5]imidazo[1,2-d][1,4]diazepine] is not below 8.00; for `Cc1ccc2nc(C)n(-c3ccc4c(c3)nc3n4CCN(C4CCC4)CC3)c2c1` [Compound 209, 3-cyclobutyl-8-(2,6-dimethyl-1H-benzo[d]imidazol-1-yl)-2,3,4,5-tetrahydro-1H-benzo[4,5]imidazo[1,2-d][1,4]diazepine] it is not below 8.00.
Take `c1cc2c(cc1-c1ccc3c(c1)nc1n3CCN(C3CCC3)CC1)OCO2` [Compound 210, 8-(benzo[d][1,3]dioxol-5-yl)-3-cyclobutyl-2,3,4,5-tetrahydro-1H-benzo[4,5]imidazo[1,2-d][1,4]diazepine]: the negative-log IC50 (pIC50) was not below 8.00.
